Source: patent US4868176A, “Novel imidazobenzodiazepines” (Roussel Uclaf, priority 1987, dated 1989)

Test system: leptazol induced seizures in mice
Experiment: potentiation of the threshold of leptazol induced seizures in mice
Assay type: in vivo
Conditions: ip
Method: Potentiation of the threshold of leptazol induced seizures in mice by active compounds was measured by the method of Lichfiel et al (J. Pharmacol. Exp. Ther. (1949) Vol. 96 Page. 99).

SMILES | ED50 (Mus musculus) [mg/kg] | Leptazol Seizures ED50
CN1Cc2c(C(=O)C3CC3)ncn2-c2ccccc2C1=O [Compound 1, 3-(5,6-dihydro-5-methyl-6-oxo-4H-imidazo[1,5a][1,4]benzodiazepinyl)-cyclopropylmethanone] | 1 to 2 | 
CN1Cc2c(C(=O)C3CC3)ncn2-c2ccc(Cl)cc2C1=O [Compound 2, (8-Chloro-5,6-dihydro-5-methyl-6-oxo-4H-imidazo[1,5-a][1,4]benzodiazepin-3-yl)-cyclopropylmethanone] |  | Not active
